Laboratory results taken from the Kinase Knowledgebase extract (Sharma et al. 2016).
Values belong to the compound of their own block, whether it stands above or below them.

Key:
[1] = molecular target: EGFR (human) (UniProt P00533); details: concentration not given here
[2] = molecular target: ROCK2 (human) (UniProt O75116); assay: Inhibition of ROCK2 Kinase Activity; details: concentration not given here
[3] = molecular target: EGFR (UniProt P00533)
[4] = molecular target: EGFR (human) (UniProt P00533)
[5] = molecular target: CDK2 (human) (UniProt P24941); assay: Enzyme Assay
[6] = molecular target: EGFR (murine) (UniProt P00533); details: nih3t3
[7] = molecular target: EGFR (UniProt P00533); remark: listed apart in the source
[8] = molecular target: EGFR (human) (UniProt P00533); remark: listed apart in the source
[9] = molecular target: EGFR (human) (UniProt P00533); remark: listed apart in the source
[10] = molecular target: EGFR (human) (UniProt P00533); details: difi
[11] = molecular target: EGFR (human) (UniProt P00533); remark: listed apart in the source
[12] = molecular target: EGFR (human) (UniProt P00533); details: kb
[13] = molecular target: EGFR (human) (UniProt P00533); details: a431
[14] = molecular target: EGFR (human) (UniProt P00533); details: a431; remark: listed apart in the source
[15] = molecular target: EGFR (human) (UniProt P00533); details: a431; remark: listed apart in the source
[16] = molecular target: EGFR (human) (UniProt P00533); remark: listed apart in the source
[17] = molecular target: EGFR (human) (UniProt P00533); details: kb; remark: listed apart in the source
[18] = molecular target: CDK2 (human) (UniProt P24941)
[19] = molecular target: EGFR (human) (UniProt P00533); details: kb; remark: listed apart in the source
[20] = molecular target: EGFR (human) (UniProt P00533); details: a431; remark: listed apart in the source
[21] = molecular target: EGFR (human) (UniProt P00533); details: kb; remark: listed apart in the source
[22] = molecular target: EGFR (human) (UniProt P00533); remark: listed apart in the source
[23] = molecular target: EGFR (UniProt P00533); details: concentration not given here
[24] = molecular target: CDK2 (human) (UniProt P24941); assay: Enzyme Assay; remark: listed apart in the source
[25] = system: MAPK14 (Balb/c mice); assay: Cell-Based Assay; details: peritoneal macrophage
[26] = molecular target: MAPK14 (UniProt Q16539); assay: Enzyme Assay
[27] = molecular target: EGFR (mouse) (UniProt P00533); details: mk
[28] = system: EGFR (murine), P00533 [Antiproliferation of 32D/EGFRvIII Cells]
[29] = molecular target: EGFR (murine) (UniProt P00533); details: 32 d
[30] = molecular target: EGFR (human) (UniProt P00533); details: kb; remark: listed apart in the source
[31] = molecular target: EGFR (human) (UniProt P00533); remark: listed apart in the source
[32] = molecular target: EGFR (human) (UniProt P00533); details: a431; remark: listed apart in the source
[33] = molecular target: EGFR (UniProt P00533); remark: listed apart in the source

Sequence of EGFR (human) (P00533 whole entry, looked up): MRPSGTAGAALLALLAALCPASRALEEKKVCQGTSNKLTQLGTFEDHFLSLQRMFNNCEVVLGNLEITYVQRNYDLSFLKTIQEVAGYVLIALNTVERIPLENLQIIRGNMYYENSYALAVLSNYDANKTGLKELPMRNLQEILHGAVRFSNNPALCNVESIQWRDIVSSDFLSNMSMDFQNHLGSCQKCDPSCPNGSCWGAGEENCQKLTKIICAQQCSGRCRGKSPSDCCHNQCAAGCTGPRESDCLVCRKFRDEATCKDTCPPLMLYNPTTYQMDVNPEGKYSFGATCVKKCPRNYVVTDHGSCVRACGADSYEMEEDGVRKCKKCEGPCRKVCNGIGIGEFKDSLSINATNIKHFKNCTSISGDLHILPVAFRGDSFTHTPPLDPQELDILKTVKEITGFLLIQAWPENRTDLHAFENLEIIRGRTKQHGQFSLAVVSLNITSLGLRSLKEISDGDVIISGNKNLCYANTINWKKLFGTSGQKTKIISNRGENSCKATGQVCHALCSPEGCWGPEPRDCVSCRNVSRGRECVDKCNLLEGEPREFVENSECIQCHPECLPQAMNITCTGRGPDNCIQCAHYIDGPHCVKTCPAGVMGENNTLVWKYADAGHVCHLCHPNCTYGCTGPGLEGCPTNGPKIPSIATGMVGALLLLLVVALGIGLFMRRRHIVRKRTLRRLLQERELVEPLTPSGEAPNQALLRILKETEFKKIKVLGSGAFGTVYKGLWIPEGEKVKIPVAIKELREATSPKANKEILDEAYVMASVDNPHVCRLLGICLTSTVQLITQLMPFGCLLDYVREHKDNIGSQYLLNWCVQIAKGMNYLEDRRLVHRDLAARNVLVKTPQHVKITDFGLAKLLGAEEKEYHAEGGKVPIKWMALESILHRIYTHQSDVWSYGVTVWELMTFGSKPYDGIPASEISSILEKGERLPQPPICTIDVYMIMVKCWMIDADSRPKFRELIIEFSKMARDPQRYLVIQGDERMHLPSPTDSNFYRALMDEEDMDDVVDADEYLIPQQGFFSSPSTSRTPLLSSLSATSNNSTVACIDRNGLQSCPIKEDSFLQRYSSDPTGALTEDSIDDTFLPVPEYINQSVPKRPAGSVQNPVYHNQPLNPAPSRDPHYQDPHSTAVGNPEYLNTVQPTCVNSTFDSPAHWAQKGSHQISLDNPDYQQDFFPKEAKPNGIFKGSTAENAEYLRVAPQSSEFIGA
Sequence of EGFR (P00533 whole entry, looked up): as above
Sequence of EGFR (murine) (P00533 whole entry, looked up): as above
Sequence of ROCK2 (human) (O75116 whole entry, looked up): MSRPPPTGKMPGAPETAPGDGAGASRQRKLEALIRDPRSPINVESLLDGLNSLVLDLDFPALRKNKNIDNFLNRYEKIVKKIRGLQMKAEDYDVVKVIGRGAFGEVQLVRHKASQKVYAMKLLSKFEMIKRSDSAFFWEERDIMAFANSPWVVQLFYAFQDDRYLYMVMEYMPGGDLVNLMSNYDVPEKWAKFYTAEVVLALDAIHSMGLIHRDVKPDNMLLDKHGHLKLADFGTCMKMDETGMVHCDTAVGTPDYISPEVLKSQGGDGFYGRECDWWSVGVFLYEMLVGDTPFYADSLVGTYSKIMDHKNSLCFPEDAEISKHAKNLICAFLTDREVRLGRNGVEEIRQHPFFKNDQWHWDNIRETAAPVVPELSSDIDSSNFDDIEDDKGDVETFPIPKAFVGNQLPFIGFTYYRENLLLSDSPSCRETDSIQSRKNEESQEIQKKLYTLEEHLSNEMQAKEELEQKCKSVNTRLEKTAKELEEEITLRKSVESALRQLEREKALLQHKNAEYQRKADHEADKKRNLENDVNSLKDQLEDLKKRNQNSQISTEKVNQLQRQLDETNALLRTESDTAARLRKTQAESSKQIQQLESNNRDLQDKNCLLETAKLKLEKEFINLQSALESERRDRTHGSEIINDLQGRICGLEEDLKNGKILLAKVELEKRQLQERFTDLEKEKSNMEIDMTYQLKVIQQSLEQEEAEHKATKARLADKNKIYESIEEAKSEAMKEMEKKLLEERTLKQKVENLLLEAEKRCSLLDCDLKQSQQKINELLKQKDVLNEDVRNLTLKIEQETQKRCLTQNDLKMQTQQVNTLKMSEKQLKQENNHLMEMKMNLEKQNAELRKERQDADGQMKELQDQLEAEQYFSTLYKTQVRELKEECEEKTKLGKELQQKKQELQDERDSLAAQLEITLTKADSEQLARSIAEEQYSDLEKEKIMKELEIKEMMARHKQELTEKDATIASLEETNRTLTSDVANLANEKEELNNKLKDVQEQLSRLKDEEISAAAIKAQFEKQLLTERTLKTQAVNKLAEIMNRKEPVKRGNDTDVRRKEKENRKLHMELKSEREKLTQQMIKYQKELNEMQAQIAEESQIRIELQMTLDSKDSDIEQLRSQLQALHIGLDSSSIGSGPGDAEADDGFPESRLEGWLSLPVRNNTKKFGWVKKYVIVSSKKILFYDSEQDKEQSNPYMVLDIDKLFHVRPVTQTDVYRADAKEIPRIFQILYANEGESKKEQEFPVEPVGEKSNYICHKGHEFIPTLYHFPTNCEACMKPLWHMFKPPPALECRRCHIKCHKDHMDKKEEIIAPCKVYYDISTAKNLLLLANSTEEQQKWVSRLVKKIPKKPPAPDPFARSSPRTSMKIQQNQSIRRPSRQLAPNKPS

inhibition [1]: 3% | inhibition [2]: 3%
SMILES: CCCOC(=O)c1c[nH]c2c(=O)[nH]c3ccc(S(=O)(=O)C4CC[C@H](N)C4)cc3c12 (stereo not given in full)

IC50 [3]: 200 nM
SMILES: CCOC(=O)c1cn2ncnc(Nc3ccc4c(cnn4Cc4ccccc4)c3)c2c1CC

IC50 [4]: > 6 µM | inhibition [2]: -1% | inhibition ([5]; concentration not given here): 7%
SMILES: CN(C(=O)C1CCCCC1)c1ccc2c(c1)nc(NC(=O)c1cccs1)n2CCC(N)=O

IC50 [9]: 1200 nM | IC50 [10]: 6.1 µM
SMILES: COc1cc2c(cc1OC)Oc1ncnc(Oc3ccc(F)c(Cl)c3)c1NC2

IC50 [11]: 9 nM | IC50 [12]: 91 nM
SMILES: COc1cc2ncnc(Nc3cccc(Cl)c3F)c2cc1CN(C)C1(C(N)=O)CCN(S(C)(=O)=O)CC1

IC50 [14]: > 50 µM | IC50 [15]: > 50 µM
SMILES: C/C(=C/c1cc2c(N)nc(N)nc2o1)c1ccc2ccccc2c1

Ki [16]: 44 nM
SMILES: COc1cc2ncc(C#N)c(Nc3cccc(C)c3)c2cc1OC

IC50 [18]: 61 µM
SMILES: NC(=O)c1sc(-c2ccsc2)cc1N

EC50 [20]: 122 nM | EC50 [21]: 225 nM | IC50 [22]: 3 nM
SMILES: CCN(CC)CC1CCN(c2ncc3ncnc(Nc4ccc(F)c(Cl)c4)c3n2)CC1

IC50 [24]: > 5 µM | IC50 [5]: > 5 µM
SMILES: CCC(C)Cn1c(=O)cc(C)c2cnc(Nc3ccc(N4CCNCC4)cc3)nc21 (stereo not given)

IC50 [25]: 19.2 nM | IC50 [26]: 16.1 nM
SMILES: OCCC#Cc1nc(-c2ccc(F)cc2)c(-c2ccncc2)n1CCCc1ccccc1

IC50 [27]: 56 nM | IC50 [29]: 300 nM
SMILES: CCN1CCN(Cc2ccc(-c3cc4c(N[C@H](C)c5ccccc5)ncnc4[nH]3)cc2)CC1
IC50 [28]: 10 nM

IC50 [30]: 2500 nM
SMILES: CN1CCC(Oc2cccc3ncnc(Nc4ccc(OCc5cccc(F)c5)c(Cl)c4)c23)CC1

The remaining lines, values behind:

SMILES: COc1ccccc1Oc1cccc2nc(N)nc(N)c12
IC50 [6]: > 100 µM

SMILES: Fc1cccc(COc2ccc(Nc3ncncc3I)cc2Cl)c1
IC50 [7]: 320 nM

SMILES: CCOCOc1cc(OCOCC)c2c(c1Cl)CC(=O)C=CCCC=CC[C@H](c1ccccc1)OC2=O
IC50 [8]: 33 µM

SMILES: CC(C)C[C@@H]1NC(=O)[C@H](CC(C(=O)O)C(=O)O)NC(=O)C[S+]([O-])C[C@@H](C(N)=O)NC(=O)CCCCNC(=O)[C@H](CC(N)=O)NC(=O)C2(CCCCC2)NC(=O)[C@H](Cc2ccc(O)c(N)c2)NC1=O (stereo not given in full)
IC50 [13]: 100 µM

SMILES: COc1cc(OC2CCN(C)CC2)c2c(Nc3ccc(F)c(Cl)c3)ncnc2c1
IC50 [17]: 87 nM

SMILES: Fc1ccc(Nc2ncnc3ccc(-c4ccc(CCN5CCOCC5)s4)cc23)cc1Cl
IC50 [19]: 190 nM

SMILES: CN1CCN(Cc2ccc(Nc3nc4ncc(C#N)c(Nc5ccc(Oc6ccccc6)cc5)c4s3)cc2)CC1
inhibition [23]: 0%

SMILES: CCN(CC)Cc1ccc(-c2cc3c(N[C@H](C)c4ccccc4)ncnc3[nH]2)cc1
IC50 [31]: 4 nM

SMILES: O=C1NC(=O)N(CCc2ccccc2)/C1=C/c1ccc(O)cc1
IC50 [32]: 27 µM

SMILES: COC(=O)c1ccc(NCc2cc(O)ccc2O)cc1
IC50 [33]: 250 nM
